For one data set, the system named is MCF-7 cells. Kind of data set: Quantitative determination by atomic absorption of cisplatin transported into tumour cells. It is filed as cell-based, human. Here is the method:
The target cells MCF-7 were trypsinized, washed twice with buffered solution (PBS) and treated with 50 μl of 35% HNO3 for 16 hours. The platin content was determined by subjecting the samples to atomic absorption with an Analyst 800 instrument, by Perkin-Elmer, Norwalk, Conn., USA, using the following parameters: pre-treatment temperature, 1300° C.; atomization temperature, 2200° C.; using as the matrix modifier a composition of 0.015 mg of […] with 0.01 mg of Mg(NO3)2. The measurements were performed using the “Zeeman-effect background” correction system with Pyrolytic graphite-coated THGA tube (Perkin Elmer) and an integrated Lvov-type platform was used for metal determination. As standard solution we used a 2.5% HNO3 solution (Spectrascan) to obtain three reference points on the calibration curve.

The next data set relates to Bax gene, normal cells. The data set can be described thus: Bax gene expression in normal cells (FIG. 2). The class given is cell-based. The text has this: FIG. 2 confirms the apoptotic action of the rMnSOD-Lp-CC complex on various cell lines.
In the experiment, actin cDNA was inserted as control of quantitative DNA expression; to note that again in this case (a) indicates untreated cells, (b) indicates cells treated with the leader peptide of rMnSOD (b), and (c) indicates cells treated with the leader peptide conjugated to cisplatin.

In data set [1] the test system is tumour cell lines (MCF7, M1735, MRC5 and A2780). Kind of data set: Immunocytochemistry with anti-leader peptide antibody on treated cell lines (FIG. 1). The following applies: immunohistochemical reaction, three hours of incubation. The class given is cell-based, human. Here is the method: The target cells (MCF-7) in continuous culture, derived from a mammary tumour of human origin, were incubated for three hours in the presence or absence of: (a) 24-amino acid leader peptide of rMnSOD-Lp-CC not conjugated to any other molecules, (b) 24-amino acid leader peptide conjugated to cisplatin.
After incubation, the cells were fixed with Zamboni fixative (solution composed of 4% paraformaldehyde+15% picric acid) for 60 minutes and washed with PBS. The cells were then maintained in PBS containing 0.3% hydrogen peroxide, with the aim of blocking endogenous peroxidases. The polyclonal antibody (anti-leader peptide of rMnSOD obtained from rabbit), diluted 1/200 was then added to the cells and left for 1 hour at ambient temperature. To develop the reaction, a DAKO SLAB Peroxidase K0679 kit was used.

The subject of the next data set is tumour cells. Conditions: recent study, state of the art; cited from earlier work.

Peptide text beside a SMILES is read from it. * marks the point of attachment. X1 = O=C(C[NH+]1CC[NH2+][Pt-2]1([Cl])[Cl])*

In the case of `N.N.[Cl][Pt][Cl]` [Cisplatin, cisplatin], in the data set with MCF-7 cells (MCF-7 Pellet, atomic absorption), the “quantity of Pt, MCF-7 Pellet” value was determined as 2.3 ng-Pt ng Pt. In the data set with MCF-7 cells (MCF-7 Solution, atomic absorption), the “quantity of cisplatin, MCF-7 Solution” value is reported as “Cisplatin 8.7 μg/l”. In the data set with MCF-7 cells (MCF-7 Solution, atomic absorption, value in brackets), the “quantity of Pt, MCF-7 Solution” value is “(3.5 μg Pt)”.
`CSCC[C@H](NC(=O)C[NH+]1CC[NH2+][Pt-2]1([Cl])[Cl])C(=O)N[C@@H](CC(C)C)C(=O)N[C@@H](CO)C(=O)N[C@@H](CCCNC(=N)N)C(=O)N[C@@H](C)C(=O)N[C@H](C(=O)N[C@@H](CS)C(=O)NCC(=O)N[C@H](C(=O)N[C@@H](CO)C(=O)N[C@@H](CCCNC(=N)N)C(=O)N[C@@H](CCC(N)=O)C(=O)N[C@@H](CC(C)C)C(=O)N[C@@H](C)C(=O)N1CCC[C@H]1C(=O)N[C@@H](C)C(=O)N[C@@H](CC(C)C)C(=O)NCC(=O)N[C@@H](Cc1ccc(O)cc1)C(=O)N[C@@H](CC(C)C)C(=O)NCC(=O)N[C@@H](CO)C(=O)N[C@@H](CCCNC(=N)N)C(=O)N[C@@H](CCC(N)=O)C(=O)O)[C@@H](C)O)C(C)C` (some centres unmarked) [rMnSOD-Lp-CC] (X1-MLSRAVCGTSRQLAPALGYLGSRQ-OH): the “toxic reaction / Bax gene expression” value in the data set with Bax gene, normal cells was “does not induce any toxic reaction”.
Turning to “MLSRAVCGTSRQLAPALGYLGSRQ [leader peptide of rMnSOD]”, the “penetration into tumour cells / cell damage” value in data set [1] is “penetrated tumour cells without damaging the cells”. Besides, the “quantity of cisplatin transported into cells relative to cisplatin alone” value in the data set with MCF-7 cells (tumour cells, Table 1) was “double”.

B1: LSA-type-MnSOD: manganese superoxide dismutase secreted by a liposarcoma cell line, 30 kDa (protein, UniProt P04179 25-222, looked up)
Superoxide dismutase [Mn], …: KHSLPDLPYDYGALEPHINAQIMQLHHSKHHAAYVNNLNVTEEKYQEALAKGDVTAQIALQPALKFNGGGHINHSIFWTNLSPNGGGEPKGELLEAIKRDFGSFDKFKEKLTAASVGVQGSGWGWLGFNKERGHLQIAACPNQDPLQGTTGLIPLLGIDVWEHAYYLQYKNVRPDYLKAIWNVINWENVTERYMACKK
With B1, in the data set with tumour cells, the “cytotoxicity to tumour cells” value is “cytotoxic specifically and selectively to tumour cells”.

B2: rMnSOD: recombinant form of LSA-type-MnSOD produced by specific cDNA clones (protein, UniProt P04179 25-222, looked up)
Superoxide dismutase [Mn], …: KHSLPDLPYDYGALEPHINAQIMQLHHSKHHAAYVNNLNVTEEKYQEALAKGDVTAQIALQPALKFNGGGHINHSIFWTNLSPNGGGEPKGELLEAIKRDFGSFDKFKEKLTAASVGVQGSGWGWLGFNKERGHLQIAACPNQDPLQGTTGLIPLLGIDVWEHAYYLQYKNVRPDYLKAIWNVINWENVTERYMACKK
In the case of B2, the “cytotoxicity to tumour cells” value with tumour cells is “retain the structural and oncotoxic properties of the native protein”.

These data come from patent publication US8481481B2, “Peptides and their use as carriers into cancer cells” (Advanced Accelerator Applications S.A., priority 2008, dated 2013).
